From ChEMBL document CHEMBL1148571, “Synthesis of 131I-labeled glucose-conjugated inhibitors of O6-methylguanine-DNA methyltransferase (MGMT) and comparison with nonconjugated inhibitors as potential tools for in vivo MGMT imaging” (J Med Chem, 2006)

Target: T1, Methylated-DNA--protein-cysteine methyltransferase (Homo sapiens) (UniProt P16455)
T1 sequence (whole entry): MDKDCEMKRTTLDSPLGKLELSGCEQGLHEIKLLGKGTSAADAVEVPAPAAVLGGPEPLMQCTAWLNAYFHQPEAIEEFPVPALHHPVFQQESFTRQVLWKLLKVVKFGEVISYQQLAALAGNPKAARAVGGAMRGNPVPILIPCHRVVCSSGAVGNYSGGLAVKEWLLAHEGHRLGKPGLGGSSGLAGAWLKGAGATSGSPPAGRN
Experiment: Binding to human MGMT
Details: tested as the 131I-labelled form

Nc1nc(OCc2cccc(I)c2)c2[nH]cnc2n1
Activity: 97%

Nc1nc(OCc2ccc(I)s2)c2[nH]cnc2n1
Activity: 80%
